Calls of active or inactive are those of the source. No cut-off for these calls is given here.
Assays:
[1] = Inhibition of bocillin FL binding to PBP 1a/1b in Escherichia coli MM 294 membrane preparation by gel electrophoresis; assay type: cell membranes
[2] = Inhibition of bocillin FL binding to PBP 2 in Escherichia coli MM 294 membrane preparation by gel electrophoresis; assay type: cell membranes
Escherichia coli [3] = assay: Inhibition of bocillin FL binding to PBP 3 in Escherichia coli MM 294 membrane preparation at 1 mM by gel electrophoresis; assay type: cell membranes
[4] = Inhibition of bocillin FL binding to PBP 4 in Escherichia coli MM 294 membrane preparation by gel electrophoresis; assay type: cell membranes
Escherichia coli [5] = assay: Inhibition of bocillin FL binding to PBP 5/6 in Escherichia coli MM 294 membrane preparation at 1 mM by gel electrophoresis; assay type: cell membranes
Escherichia coli [6] = assay: Antibacterial activity against Escherichia coli MM 294 after 20 hrs by tube dilution method; assay type: functional; conditions: MM 294, 20 h
Escherichia coli [7] = assay: Inhibition of bocillin FL binding to Escherichia coli MM 294 PBP by whole-cell assay
Bacillus subtilis [8] = assay: Inhibition of bocillin FL binding to Bacillus subtilis PBP1 at 1 mM by gel electrophoresis
Bacillus subtilis [9] = assay: Inhibition of bocillin FL binding to Bacillus subtilis PBP2 at 1 mM by gel electrophoresis
Bacillus subtilis [10] = assay: Inhibition of bocillin FL binding to Bacillus subtilis PBP3/4 at 1 mM by gel electrophoresis
Bacillus subtilis [11] = assay: Inhibition of bocillin FL binding to Bacillus subtilis PBP5 at 1 mM by gel electrophoresis
Bacillus subtilis [12] = assay: Antibacterial activity against Bacillus subtilis after 20 hrs by tube dilution method; assay type: functional, organism-based
[13] = Inhibition of bocillin FL binding to PBP 3 in Escherichia coli MM 294 membrane preparation by gel electrophoresis; assay type: cell membranes
[14] = Inhibition of bocillin FL binding to PBP 5/6 in Escherichia coli MM 294 membrane preparation by gel electrophoresis; assay type: cell membranes
[15] = Inhibition of bocillin FL binding to Escherichia coli MM 294 PBP2 by cell-free assay
Escherichia coli [16] = assay: Inhibition of bocillin FL binding to Escherichia coli MM 294 PBP 5/6 by cell-free assay
Escherichia coli [17] = assay: Inhibition of bocillin FL binding to PBP 1a/1b in Escherichia coli MM 294 membrane preparation at 1 mM by gel electrophoresis; assay type: cell membranes
Escherichia coli [18] = assay: Inhibition of bocillin FL binding to PBP 2 in Escherichia coli MM 294 membrane preparation at 1 mM by gel electrophoresis; assay type: cell membranes
Escherichia coli [19] = assay: Inhibition of bocillin FL binding to PBP 4 in Escherichia coli MM 294 membrane preparation at 1 mM by gel electrophoresis; assay type: cell membranes

SMILES	inhibition (Escherichia coli [3])	inhibition (Escherichia coli [5])	MIC (Escherichia coli [6]) [µM]	inhibition (Escherichia coli [7])	inhibition (Bacillus subtilis [8])	inhibition (Bacillus subtilis [9])	inhibition (Bacillus subtilis [10])	inhibition (Bacillus subtilis [11])	inhibition (Escherichia coli [16])	Ki [1] [µM]	Ki [2] [µM]	Ki [4] [µM]	Activity (Bacillus subtilis [12])	Ki [13] [µM]	Ki [14] [µM]	Ki [15] [µM]	inhibition (Escherichia coli [17])	inhibition (Escherichia coli [18])	inhibition (Escherichia coli [19])
O=c1cc[nH]c2cc(O)ccc12	inactive	inactive	> 1000	inactive	Active	Active	Active	Active	–	510	89	55	inactive	–	–	–	–	–	–
O=c1cc(CO)[nH]c2ccccc12	–	–	> 1000	inactive	Active	Active	Active	Active	inactive	27	26	4.8	inactive	27	220	64	–	–	–
Oc1ccnc2ccccc12	inactive	inactive	–	–	–	–	–	–	–	–	–	–	–	–	–	–	inactive	inactive	inactive
O=c1c(CCO)c[nH]c2ccccc12	–	inactive	> 1000	inactive	Active	Active	Active	Active	–	38	27	3.1	inactive	70	–	–	–	–	–

More lines, main results first:

inhibition (Escherichia coli [3])	inhibition (Escherichia coli [5])	MIC (Escherichia coli [6]) [µM]	inhibition (Escherichia coli [7])	inhibition (Bacillus subtilis [8])	inhibition (Bacillus subtilis [9])	inhibition (Bacillus subtilis [10])	inhibition (Bacillus subtilis [11])	inhibition (Escherichia coli [16])	SMILES	Ki [1] [µM]	Ki [2] [µM]	Ki [4] [µM]	Activity (Bacillus subtilis [12])	Ki [13] [µM]	Ki [14] [µM]	Ki [15] [µM]	inhibition (Escherichia coli [17])	inhibition (Escherichia coli [18])	inhibition (Escherichia coli [19])
inactive	inactive	> 1000	inactive	Active	Active	Active	Active	–	O=C(O)Cc1c[nH]c2ccccc2c1=O	300	250	29	inactive	–	–	–	–	–	–
–	inactive	> 1000	inactive	Active	Active	Active	Active	–	O=c1cc(CCCO)[nH]c2ccccc12	49	50	6.1	inactive	120	–	–	–	–	–
–	inactive	> 1000	inactive	Active	Active	Active	Active	–	O=C(O)c1cc(=O)c2ccccc2[nH]1 [TRANSTORINE]	470	210	37	inactive	950	–	–	–	–	–
inactive	inactive	> 1000	inactive	Active	Active	Active	Active	–	Oc1cccc2nccc(O)c12	–	–	–	inactive	–	–	–	inactive	inactive	inactive
–	–	> 1000	inactive	Active	Active	Active	Active	–	O=c1cc(CCO)[nH]c2ccccc12	37	26	7	inactive	120	520	–	–	–	–
